Measurements reported in patent publication US20200031920A1, “Combination Therapy for Treating Cancer” (The George Washington University, priority 2017, published 2020).

What was measured:
SKOV3 CR cells [1] = assay: clonogenic (colony formation) assay; assay type: cell-based; conditions: 0.1 μM LY2784544 and 0.5 μM cisplatin, 14 days
Procedure: FIG. 16 is an illustration showing representative colony formation (A) and bar graphs ((B)-(C)). SKOV3 parental and resistant cells were treated with 0.1 μM LY2784544 and 0.5 μM cisplatin for 14 days and quantification data of colony formation assays ((B) and (C)). Colonies in (A) were stained with crystal violet. Data are represented as mean±SD from three independent experiments performed in triplicate. *p<0.05, **p<0.01, ***p<0.001.
Clonogenic assays were conducted to evaluate the cell survival of SKOV3 and SKOV3 CR cells in response to cisplatin, LY2784544, or both cisplatin and LY2784544. […] Currently, carboplatin-based chemotherapy becomes a universal choice. The synergistic effect of LY2784544 with carboplatin on SKOV3 CR cells was also examined.

[2] = tested on: SKOV3 CR xenograft tumors; assay: SKOV3 CR xenograft tumors in nude mice; assay type: in vivo
Procedure: FIG. 26 are line graphs showing the growth curves of tumors (A) and Kaplan-Meier survival curves (C) from mice treated with vehicle, LY2784544 (15 mg/kg/day intraperitoneally), cisplatin (8 mg/kg/week intraperitoneally), or LY2784544 plus cisplatin (combo) for 2 weeks. A photograph of the representative tumor from mice in each treatment arm is also shown (B). Data in (A) are represented as mean±SEM, n=6 mice/group. *p<0.05, **p<0.01, ***p<0.001. Data in (B) are represented as n=6 mice/group. *p<0.05, **p<0.01. Ruler scale in (B) is in cm.
FIG. 27 is an illustration showing the IHC and TUNEL staining of tumors from mice in each treatment arm sacrificed after 4 days of treatment. n=3 mice/group. Bar=50 μm.
To determine whether LY2784544 is able to sensitize SKOV3 CR cells to cisplatin in vivo, SKOV3 CR cells were implanted subcutaneously into nude mice. When the tumor volume reached 100 mm^3, mice were randomized to receive intraperitoneal injections of vehicle, cisplatin (8 mg/kg on days 1 and 8), LY2784544 (15 mg/kg/d from day 1 to day 14), or the combination of cisplatin and LY2784544. […] To evaluate whether this in vivo tumor suppression was through inhibition of the JAK2 pathway and increased apoptosis, the tumor samples four days after full dosage treatment were collected. […] Quantification of phosphorylated JAK2 and TUNEL staining in tumor tissues treated was performed (FIG. 28). […] To confirm the selectivity of LY2784544, an in vitro kinase profiling was conducted to examine the interaction of LY2784544 with more than 450 human kinases.

SKOV3 CR cells [3] = assay: cell viability / proliferation (SRB) assay, cisplatin resistant SKOV3 CR cells; assay type: cell-based; conditions: combination with carboplatin, CI<1 synergism
IGROV1 cells = assay: cell proliferation assay, IGROV1 parental cells; assay type: cell-based; conditions: 5 days
Description: FIG. 60 is a line graph showing the proliferation of IGROV1 parental and IGROV1 CR cells treated with increasing concentrations of cisplatin for 5 days (left). Data are represented as mean±SD from three independent experiments performed in triplicate. Indicated IC50 values represent the mean of two independent experiments performed in triplicate.
Using a similar approach as described in FIG. 1, another cisplatin resistant ovarian cancer cell line IGROV1 CR was raised from its cisplatin sensitive parental cell IGROV1 cells. […] The cell proliferation of IGROV1 CR cells treated with cisplatin, LY2784544 or both LY2784544 and cisplatin was examined.

SKOV3 xenograft tumors = assay: SKOV3 and SKOV3 CR xenograft tumors treated with cisplatin; assay type: in vivo, nude mice
Procedure: FIG. 4 is an illustration showing representative TUNEL staining (A) and a bar graph (B) of SKOV3 and SKOV3 CR xenograft tumors treated with cisplatin for two weeks (2 mg/kg or 4 mg/kg cisplatin twice per week) and quantified apoptosis percentage (B). n−3 mice/group. Bar in (A)−50 μm. Data are represented as mean±SD. **p<0.01, ***p<0.001.
FIG. 52 is a bar graph showing IL-11 levels measured by ELISA in plasma of mice bearing SKOV3 xenograft tumors treated with vehicle or cisplatin (2-6 mg/kg/twice a week intraperitoneally for 2 weeks). Data are represented as mean±SD. n=3 mice/group. **p<0.01, ***p<0.001.
Since cisplatin exerts its anticancer effect mainly through its ability to cause DNA damage, resulting in apoptosis, the apoptotic cells in both SKOV3 and SKOV CR cells were measured using Annexin V and Propidium Iodide staining. […] To test whether SKOV3 CR cells are resistant to cisplatin-induced apoptosis in vivo, both SKOV3 and SKOV3 CR cells were injected into nude mice to form xenograft tumors. Once the tumor size reached 100-150 mm^3, cisplatin was given to mice by intraperitoneal injections twice a week for 2 weeks. Three days after treatment, the apoptosis in tumors was examined by TUNEL staining. […] Currently, carboplatin is a more commonly used platinum drug employed clinically to treat ovarian patients. Ozols et al., J Clin Oncol 21: 3194-3200 (2003). Thus, it was tested whether SKOV3 CR cells are also resistant to carboplatin (Sigma-Aldrich).
To further test whether ovarian cancer cells have a similar response to cisplatin in vivo, SKOV3 xenograft tumors were treated with various doses of cisplatin (2 mg-6 mg/kg/twice per week) for 2 weeks. Mice were sacrificed 4 days after the last treatment, and blood samples and xenograft tumors were collected to examine IL-11 expression. […] A high dose of cisplatin generated the high levels of both IL-11 and pJAK2 (Y1007/1008) on tumors (FIG. 53). Thus, cisplatin is able to promote expression of IL-11 as well as JAK2 pathway both in vitro and in vivo.

[4] = tumor samples four days after full dosage treatment
[5] = SKOV3 xenograft, cisplatin 2-6 mg/kg twice per week for 2 weeks

Row | Structure (SMILES) | cell survival, combined treatment compared to cisplatin treatment (SKOV3 CR cells [1]) | tumor growth, combination versus vehicle or single agents ([2]; LY2784544 15 mg/kg/d i.p. day 1-14 plus cisplatin 8 mg/kg i.p. days 1 and 8) | survival of mice, combination ([2]; LY2784544 15 mg/kg/d i.p. plus cisplatin 8 mg/kg i.p. days 1 and 8) | histopathology of liver and kidney ([2]; any treated groups (cisplatin, LY2784544, combination), 4 days after final treatment) | mouse body weight, combined treatment with cisplatin ([2]; during treatment) | apoptosis in tumors (TUNEL), combined with cisplatin [2, 4] | phosphorylation of JAK2 in tumors (IHC) [2, 4] | medium CI (combination index) (SKOV3 CR cells [3]) | IC50 (IGROV1 cells) [nM] | IL-11 and pJAK2 levels in tumors (IHC) (SKOV3 xenograft tumors; [5]) | human IL-11 levels in serum (SKOV3 xenograft tumors; [5]) | apoptosis in xenograft tumors (TUNEL) (SKOV3 xenograft tumors; cisplatin i.p. twice a week for 2 weeks (2 or 4 mg/kg), three days after treatment)
1 | Cc1cc(Nc2cc(CN3CCOCC3)c3nc(C)c(Cc4ccc(Cl)cc4F)n3n2)n[nH]1 [LY2784544] | significantly reduced the survival of SKOV3 CR | significantly reduced the tumor growth | improved survival of the mice | No histopathological changes and lesions in liver and kidney | no significant reduction in mouse body weight | significantly induced the apoptosis | efficiently reduce the phosphorylation of JAK2 in vivo | 0.75 | – | – | – | –
2 | N.N.[Cl][Pt][Cl] [cisplatin] | – | – | – | – | – | – | – | – | 510 | significant increase of IL-11 as well as pJAK2 (Y1007/1008) levels in SKOV3 tumors | dramatically increased human IL-11 levels in serum of nude mice | apoptotic population was significantly increased in SKOV3 but not in SKOV3 CR cells
